Structures can show the parent of a compound that is named as a salt.

Data set [1] relates to painful syndrome produced in mice by phenylbenzoquinone. Nature of the data set: Analgesic test of Siegmund, Cadmus and Lu (phenylbenzoquinone-induced painful syndrome, stretching). In kind it is in vivo, mice (Swiss strain). Conditions: oral; for Analgesic activity at 1/10 of LD50: dose 1/10 of LD50, 30 minutes before phenylbenzoquinone; for Analgesic activity at 1/40 of LD50: dose 1/40 of LD50, 30 minutes before phenylbenzoquinone. As for the experimental part:
They were in particular subjected to the analgesic test of Siegmund, Cadmus and Lu (Proc. Soc. Exp. Biol. Med. 95, 729, 1957) according to which a characteristic painful syndrome is produced in mice by injecting phenylbenzoquinone.
The animals used are Swiss strain mice, weighing 20±2 grams.
The animals are distributed in random batches of 10, but are tested individually. Each test comprises at least two batches.
a control batch that receives the solvent and phenylbenzoquinone
a batch treated with the product being investigated.
The investigated products are administered orally, in an amount of 1/10 or 1/40 of the LD50, 30 minutes before the injection of the irritant agent. Each mouse then receives 0.25 ml of a 0.02% phenylbenzoquinone solution intraperitoneally.
The pain syndrome produced by the injection of phenylbenzoquinone causes the animals to stretch their stomach and rear paws, and at the crisis point of the reaction the animal's flanks are very contracted. 5 minutes after the injection of the irritant, the stretching is counted for a period of 10 minutes.
The average number of stretchings is calculated for each batch. The activity of the product under investigations is determined by comparison with the average number of stretchings in the treated animals (N) and the average number of stretchings in the control animals (N'). [formula]
The statistical significance of the result thus obtained is evaluated by Fisher's non-parametric test.

In another data set the test system is carrageenin oedema. Nature of the data set: Carrageenin oedema test (Winter and Risley's technique), anti-inflammatory activity. In kind it is in vivo, rats (Wistar strain, female). Conditions: rats, inhibition of oedema compared with control batch. The procedure:
The anti-inflammatory activity was measured by the carrageenin oedema test according to Winter and Risley's technique (Proc. Soc. Exp. Biol. 111, 544, 1962). The test was carried out on batches of 10 Wistar strain female rats weighing 180 g, which receives the products in an amount of 1/10 of the LD50. The anti-inflammatory activity corresponds to the inhibition of the oedema in the treated batch compared with the control batch.
On the technique in general: The carrageenan paw model is a standard test of acute inflammation.

Data set [2] is described as follows: Oral toxicity in mice (Miller and Tainter's method). Conditions: mouse, in vivo, po, read-out: LD50 toxicity orally. In kind it is in vivo. As for the experimental part:
(§1) The toxicity of the compounds according to the invention administered orally was also determined in mice by Miller and Tainter's method.

The next data set has as its system mice. Described as above. In kind it is in vivo. The procedure:
as §1

Broadly, the LD50 is the dose expected to kill half of the subjects tested. Regarding `CCOC(=O)C(C)Oc1cccc(C(=O)c2ccc(Cl)cc2)c1C` (stereo not shown) [Ethyl ester of Example 6], in data set [1], the “Analgesic activity at 1/10 of LD50” value is 77% and the “Analgesic activity at 1/40 of LD50” value is recorded as 73%. Also, the “Anti-inflammatory activity at 1/10 of LD50” value (from here on “Anti-inflammatory activity”) in the data set on carrageenin oedema amounted to 62%. Moreover, in data set [2], the LD50 stood at 1500 mg/kg.

Take `CC(Oc1cccc(C(=O)c2ccccc2)c1)C(=O)O` (stereo not shown) [Example 1]: in data set [1], the “Analgesic activity at 1/10 of LD50” value is 86% and the “Analgesic activity at 1/40 of LD50” value came to 84%. Besides, the “Anti-inflammatory activity” value in the data set with carrageenin oedema is recorded as 17%. Also, the LD50 in data set [2] is 1000 mg/kg.

`Cc1c(OC(C)C(=O)O)cccc1C(=O)c1ccccc1` (stereo not shown) [Example 2]: the “Analgesic activity at 1/10 of LD50” value in data set [1] turned out to be 73%. Besides, the “Anti-inflammatory activity” value with carrageenin oedema amounted to 33%. Further, the LD50 in data set [2] is 750 mg/kg.

On to `CC(Oc1cccc(C(=O)c2ccc(Cl)cc2Cl)c1)C(=O)O` (stereo not shown) [Example 3], for which, in data set [1], the “Analgesic activity at 1/10 of LD50” value is reported as 98.5% and the “Analgesic activity at 1/40 of LD50” value was determined as 71%. In the data set with carrageenin oedema, the “Anti-inflammatory activity” value is on record as 18%. Further, in data set [2], the LD50 was 1500 mg/kg.

As to `CC(Oc1cccc(C(=O)c2ccc(Br)cc2)c1)C(=O)O` (stereo not shown) [Example 4], in data set [1], the “Analgesic activity at 1/10 of LD50” value worked out at 84% and the “Analgesic activity at 1/40 of LD50” value came to 58%. In addition, the “Anti-inflammatory activity” value in the data set on carrageenin oedema is reported as 45%. The LD50 in data set [2] is 1000 mg/kg.

As to `CC(Oc1cccc(C(=O)c2ccc(F)cc2)c1)C(=O)O` (stereo not shown) [Example 5], in data set [1], the “Analgesic activity at 1/10 of LD50” value worked out at 89% and the “Analgesic activity at 1/40 of LD50” value came to 63%. In addition, in the data set on carrageenin oedema, the “Anti-inflammatory activity” value is 26%. In addition, the LD50 in data set [2] was 1500 mg/kg.

Regarding `Cc1c(OC(C)C(=O)O)cccc1C(=O)c1ccc(Cl)cc1` (stereo not shown) [Example 6], in data set [1], the “Analgesic activity at 1/10 of LD50” value is listed as 94% and the “Analgesic activity at 1/40 of LD50” value came out at 83%. In the data set on carrageenin oedema, the “Anti-inflammatory activity” value is 46%. In addition, in data set [2], the LD50 was 750 mg/kg.

As to `Cc1ccc(C(=O)c2ccc(Cl)cc2)cc1OC(C)C(=O)O` (stereo not shown) [Example 7], the “Analgesic activity at 1/10 of LD50” value in data set [1] was found to be 81%. Further, the “Anti-inflammatory activity” value in the data set with carrageenin oedema turned out to be 21%. Moreover, the LD50 in data set [2] amounted to 500 mg/kg.

`Cc1ccc(C(=O)c2cccc(OC(C)C(=O)O)c2)cc1` (stereo not shown) [Example 8]: in data set [1], the “Analgesic activity at 1/10 of LD50” value is recorded as 84% and the “Analgesic activity at 1/40 of LD50” value is given as 86%. The “Anti-inflammatory activity” value in the data set on carrageenin oedema is on record as 40%. Also, the LD50 in data set [2] is 1500 mg/kg.

Consider `Cc1c(OC(C)C(=O)O)cccc1C(=O)c1ccc(Cl)cc1Cl` (stereo not shown) [Example 9], for which, in data set [1], the “Analgesic activity at 1/10 of LD50” value was determined as 64%. Also, in data set [2], the LD50 worked out at 750 mg/kg.

As for `Cc1ccc(C(=O)c2cccc(OC(C)C(=O)O)c2C)cc1` (stereo not shown) [Example 10], in data set [1], the “Analgesic activity at 1/10 of LD50” value was 92%. The “Anti-inflammatory activity” value in the data set on carrageenin oedema is on record as 32%. Also, the LD50 in data set [2] stood at 600 mg/kg.

On to `Cc1ccc(C(=O)c2cccc(OC(C)C(=O)O)c2)c(C)c1` (stereo not shown) [Example 11], for which, in data set [1], the “Analgesic activity at 1/10 of LD50” value came out at 97% and the “Analgesic activity at 1/40 of LD50” value worked out at 31%. Also, the “Anti-inflammatory activity” value with carrageenin oedema is recorded as 41%. Moreover, the LD50 in data set [2] stood at 2000 mg/kg.

On to `CC(Oc1cccc(C(=O)c2ccccc2)c1)C(=O)O` (stereo not shown) [Lysine salt of Ex. 1], for which, in data set [1], the “Analgesic activity at 1/10 of LD50” value turned out to be 97% and the “Analgesic activity at 1/40 of LD50” value came to 86%. Also, the “Anti-inflammatory activity” value with carrageenin oedema came to 50%. The compound further yielded an LD50 toxicity orally in the data set on mice of 2000 mg/kg.

Turning to `Cc1c(OC(C)C(=O)O)cccc1C(=O)c1ccc(Cl)cc1` (stereo not shown) [Lysine salt of Ex. 6], in data set [1], the “Analgesic activity at 1/10 of LD50” value stood at 80% and the “Analgesic activity at 1/40 of LD50” value is given as 89%. The “Anti-inflammatory activity” value in the data set with carrageenin oedema came to 57%. For the same compound, the LD50 toxicity orally in the data set with mice is reported as 1000 mg/kg.

`Cc1ccc(C(=O)c2cccc(OC(C)C(=O)O)c2)cc1` (stereo not shown) [Lysine salt of Ex. 8]: in data set [1], the “Analgesic activity at 1/10 of LD50” value was determined as 87% and the “Analgesic activity at 1/40 of LD50” value stood at 36%. In addition, the “Anti-inflammatory activity” value in the data set on carrageenin oedema is 30%. In the data set with mice, this compound came in with an LD50 toxicity orally of 2000 mg/kg.

The values above are taken from patent US4277497A, “Analgesic 2-(M-benzoylphenoxy)-propionic acid derivatives” (Unicler, priority 1978, dated 1981).
